Results from US11542240B2, “STK19 inhibitors for treatment of cancer” (TRUSTEES OF BOSTON UNIVERSITY, priority 2018, dated 2023).

Experiments:
Experiment in all cases: biochemical
Format in all cases: binding
[1] = target: panel of 468 diverse kinases (Homo sapiens, UniProt P23443); settings: S6K1; 1000 nM; read-out: Percent Control
[2] = target: panel of 468 diverse kinases (Homo sapiens, UniProt O00444); settings: PLK4; 1000 nM; read-out: Percent Control
[3] = target: panel of 468 diverse kinases (Homo sapiens, UniProt Q13233); settings: MAP3K1; 1000 nM; read-out: Percent Control
[4] = target: panel of 468 diverse kinases (Homo sapiens, UniProt Q9H093); settings: SNARK; 1000 nM; read-out: Percent Control
[5] = target: panel of 468 diverse kinases (Homo sapiens, UniProt P10721, L576P); settings: KIT(L576P); 1000 nM; read-out: Percent Control
[6] = target: panel of 468 diverse kinases (Homo sapiens, UniProt P49840); settings: GSK3A; 1000 nM; read-out: Percent Control
[7] = target: panel of 468 diverse kinases (Homo sapiens, UniProt O75914); settings: PAK3; 1000 nM; read-out: Percent Control
[8] = target: panel of 468 diverse kinases (Homo sapiens, UniProt Q8IW41); settings: MAPKAPK5; 1000 nM; read-out: Percent Control
[9] = target: panel of 468 diverse kinases (Homo sapiens, UniProt Q13164); settings: ERK5; 1000 nM; read-out: Percent Control
Sequence of panel of 468 diverse kinases (Homo sapiens, UniProt Q13164) (Q13164 2-816 limits assumed): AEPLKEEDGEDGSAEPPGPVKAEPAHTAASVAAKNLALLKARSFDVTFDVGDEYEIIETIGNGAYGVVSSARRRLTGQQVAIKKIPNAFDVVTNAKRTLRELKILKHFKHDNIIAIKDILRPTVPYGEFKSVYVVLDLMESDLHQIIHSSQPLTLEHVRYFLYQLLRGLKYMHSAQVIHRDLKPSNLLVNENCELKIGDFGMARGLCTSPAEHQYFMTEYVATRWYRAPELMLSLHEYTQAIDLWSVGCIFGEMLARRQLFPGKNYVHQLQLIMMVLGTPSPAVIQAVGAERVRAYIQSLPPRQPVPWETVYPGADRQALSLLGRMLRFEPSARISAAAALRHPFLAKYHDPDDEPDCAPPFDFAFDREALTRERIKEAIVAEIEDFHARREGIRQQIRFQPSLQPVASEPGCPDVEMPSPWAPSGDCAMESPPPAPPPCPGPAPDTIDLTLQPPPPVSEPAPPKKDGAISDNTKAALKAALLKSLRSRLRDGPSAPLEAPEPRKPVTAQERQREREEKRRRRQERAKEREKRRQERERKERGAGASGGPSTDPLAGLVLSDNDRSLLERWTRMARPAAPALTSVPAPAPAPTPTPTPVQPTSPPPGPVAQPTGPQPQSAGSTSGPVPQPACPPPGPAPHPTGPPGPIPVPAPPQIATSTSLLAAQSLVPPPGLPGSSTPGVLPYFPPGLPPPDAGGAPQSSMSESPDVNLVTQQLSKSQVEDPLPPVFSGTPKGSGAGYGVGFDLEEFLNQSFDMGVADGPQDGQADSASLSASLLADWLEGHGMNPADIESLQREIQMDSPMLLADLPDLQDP

[10] = target: panel of 468 diverse kinases (Homo sapiens, UniProt P45984); settings: JNK2; 1000 nM; read-out: Percent Control
[11] = target: panel of 468 diverse kinases (Homo sapiens, UniProt Q9H2K8); settings: TAOK3; 1000 nM; read-out: Percent Control
[12] = target: panel of 468 diverse kinases (Homo sapiens, UniProt Q15303); settings: ERBB4; 1000 nM; read-out: Percent Control
Sequence of panel of 468 diverse kinases (Homo sapiens, UniProt Q15303) (Q15303 26-1308 limits assumed): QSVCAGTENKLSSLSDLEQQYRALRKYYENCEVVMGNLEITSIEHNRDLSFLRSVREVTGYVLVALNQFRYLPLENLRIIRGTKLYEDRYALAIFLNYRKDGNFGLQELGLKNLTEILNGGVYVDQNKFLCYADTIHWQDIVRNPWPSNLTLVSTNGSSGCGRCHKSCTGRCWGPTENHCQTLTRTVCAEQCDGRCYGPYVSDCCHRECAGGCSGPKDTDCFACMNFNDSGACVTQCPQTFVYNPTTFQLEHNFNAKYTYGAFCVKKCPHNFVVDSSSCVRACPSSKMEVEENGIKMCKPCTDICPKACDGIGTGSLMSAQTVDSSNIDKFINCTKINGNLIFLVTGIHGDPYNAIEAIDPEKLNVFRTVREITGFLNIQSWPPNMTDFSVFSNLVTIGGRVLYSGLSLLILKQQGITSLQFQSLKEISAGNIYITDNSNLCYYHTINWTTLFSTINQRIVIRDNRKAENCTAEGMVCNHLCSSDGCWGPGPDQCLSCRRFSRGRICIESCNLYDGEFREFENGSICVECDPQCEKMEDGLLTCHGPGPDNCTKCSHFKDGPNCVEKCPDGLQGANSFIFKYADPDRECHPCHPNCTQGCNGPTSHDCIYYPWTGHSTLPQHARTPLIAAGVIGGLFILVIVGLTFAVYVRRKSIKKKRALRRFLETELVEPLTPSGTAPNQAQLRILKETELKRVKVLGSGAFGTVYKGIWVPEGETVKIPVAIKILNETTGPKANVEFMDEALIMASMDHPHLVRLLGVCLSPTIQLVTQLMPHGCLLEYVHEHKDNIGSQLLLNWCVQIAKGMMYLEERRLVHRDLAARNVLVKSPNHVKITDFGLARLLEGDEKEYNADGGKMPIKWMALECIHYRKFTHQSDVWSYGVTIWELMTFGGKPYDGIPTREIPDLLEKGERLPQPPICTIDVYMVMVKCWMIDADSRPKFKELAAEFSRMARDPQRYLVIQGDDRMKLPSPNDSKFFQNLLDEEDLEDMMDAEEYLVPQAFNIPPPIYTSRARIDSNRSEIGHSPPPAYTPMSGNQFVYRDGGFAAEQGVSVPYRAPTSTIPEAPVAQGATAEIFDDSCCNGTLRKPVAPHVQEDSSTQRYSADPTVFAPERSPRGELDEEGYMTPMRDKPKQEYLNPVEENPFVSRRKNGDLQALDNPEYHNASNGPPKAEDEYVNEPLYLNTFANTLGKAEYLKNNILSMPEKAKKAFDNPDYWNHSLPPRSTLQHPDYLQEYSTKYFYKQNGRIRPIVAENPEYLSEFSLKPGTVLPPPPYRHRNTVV

[13] = target: panel of 468 diverse kinases (Homo sapiens, UniProt Q13131); settings: AMPK-alpha1; 1000 nM; read-out: Percent Control
[14] = target: panel of 468 diverse kinases (Homo sapiens, UniProt Q9NRP7); settings: STK36; 1000 nM; read-out: Percent Control
[15] = target: panel of 468 diverse kinases (Homo sapiens, UniProt Q13554); settings: CAMK2B; 1000 nM; read-out: Percent Control
[16] = target: panel of 468 diverse kinases (Homo sapiens, UniProt Q9Y4K4); settings: MAP4K5; 1000 nM; read-out: Percent Control
[17] = target: panel of 468 diverse kinases (Homo sapiens, UniProt P29320); settings: EPHA3; 1000 nM; read-out: Percent Control
Sequence of panel of 468 diverse kinases (Homo sapiens, UniProt P29320) (P29320 21-983 limits assumed): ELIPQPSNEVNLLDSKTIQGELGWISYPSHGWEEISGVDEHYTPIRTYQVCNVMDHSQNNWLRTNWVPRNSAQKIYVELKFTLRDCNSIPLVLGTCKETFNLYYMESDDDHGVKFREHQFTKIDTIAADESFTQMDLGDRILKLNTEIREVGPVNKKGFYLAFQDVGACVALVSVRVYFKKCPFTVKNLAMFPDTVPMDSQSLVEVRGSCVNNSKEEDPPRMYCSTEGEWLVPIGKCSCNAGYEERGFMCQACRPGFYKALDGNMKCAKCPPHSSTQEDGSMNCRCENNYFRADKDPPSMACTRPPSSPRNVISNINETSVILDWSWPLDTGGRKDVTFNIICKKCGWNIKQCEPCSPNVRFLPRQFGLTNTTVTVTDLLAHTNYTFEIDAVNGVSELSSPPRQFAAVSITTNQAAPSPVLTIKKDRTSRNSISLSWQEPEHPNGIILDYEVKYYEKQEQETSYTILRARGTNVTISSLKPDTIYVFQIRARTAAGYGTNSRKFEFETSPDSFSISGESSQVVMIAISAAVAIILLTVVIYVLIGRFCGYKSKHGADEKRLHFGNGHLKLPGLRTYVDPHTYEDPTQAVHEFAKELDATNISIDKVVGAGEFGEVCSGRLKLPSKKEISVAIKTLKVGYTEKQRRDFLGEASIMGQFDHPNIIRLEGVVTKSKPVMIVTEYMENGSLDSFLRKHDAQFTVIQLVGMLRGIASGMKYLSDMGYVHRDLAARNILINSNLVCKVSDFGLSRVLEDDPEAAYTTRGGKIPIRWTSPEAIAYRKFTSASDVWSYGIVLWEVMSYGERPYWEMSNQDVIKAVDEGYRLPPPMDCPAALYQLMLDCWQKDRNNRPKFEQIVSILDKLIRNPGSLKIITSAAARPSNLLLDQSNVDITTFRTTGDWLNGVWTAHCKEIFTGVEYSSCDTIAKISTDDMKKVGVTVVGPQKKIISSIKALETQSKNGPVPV

[18] = target: panel of 468 diverse kinases (Homo sapiens, UniProt Q6P2M8); settings: CAMK1B; 1000 nM; read-out: Percent Control
[19] = target: panel of 468 diverse kinases (Homo sapiens, UniProt O75116); settings: ROCK2; 1000 nM; read-out: Percent Control
[20] = target: panel of 468 diverse kinases (Homo sapiens, UniProt P53667); settings: LIMK1; 1000 nM; read-out: Percent Control
[21] = target: panel of 468 diverse kinases (Homo sapiens, UniProt Q9NWZ3); settings: IRAK4; 1000 nM; read-out: Percent Control
[22] = target: panel of 468 diverse kinases (Homo sapiens, UniProt Q16659); settings: ERK3; 1000 nM; read-out: Percent Control
[23] = target: panel of 468 diverse kinases (Homo sapiens, UniProt Q8TF76); settings: HASPIN; 1000 nM; read-out: Percent Control
[24] = target: panel of 468 diverse kinases (Homo sapiens, UniProt O00329); settings: PIK3CD; 1000 nM; read-out: Percent Control
[25] = target: panel of 468 diverse kinases (Homo sapiens, UniProt Q9BYP7); settings: WNK3; 1000 nM; read-out: Percent Control
[26] = target: panel of 468 diverse kinases (Homo sapiens, UniProt Q9UM73, C1156Y); settings: ALK(C1156Y); 1000 nM; read-out: Percent Control
[27] = target: panel of 468 diverse kinases (Homo sapiens, UniProt O15111); settings: IKK-alpha; 1000 nM; read-out: Percent Control
[28] = target: panel of 468 diverse kinases (Homo sapiens, UniProt Q9BXA7); settings: TSSK1B; 1000 nM; read-out: Percent Control
[29] = target: panel of 468 diverse kinases (Homo sapiens, UniProt Q96RR4); settings: CAMKK2; 1000 nM; read-out: Percent Control
Sequence of panel of 468 diverse kinases (Homo sapiens, UniProt Q96RR4) (Q96RR4 2-588 limits assumed): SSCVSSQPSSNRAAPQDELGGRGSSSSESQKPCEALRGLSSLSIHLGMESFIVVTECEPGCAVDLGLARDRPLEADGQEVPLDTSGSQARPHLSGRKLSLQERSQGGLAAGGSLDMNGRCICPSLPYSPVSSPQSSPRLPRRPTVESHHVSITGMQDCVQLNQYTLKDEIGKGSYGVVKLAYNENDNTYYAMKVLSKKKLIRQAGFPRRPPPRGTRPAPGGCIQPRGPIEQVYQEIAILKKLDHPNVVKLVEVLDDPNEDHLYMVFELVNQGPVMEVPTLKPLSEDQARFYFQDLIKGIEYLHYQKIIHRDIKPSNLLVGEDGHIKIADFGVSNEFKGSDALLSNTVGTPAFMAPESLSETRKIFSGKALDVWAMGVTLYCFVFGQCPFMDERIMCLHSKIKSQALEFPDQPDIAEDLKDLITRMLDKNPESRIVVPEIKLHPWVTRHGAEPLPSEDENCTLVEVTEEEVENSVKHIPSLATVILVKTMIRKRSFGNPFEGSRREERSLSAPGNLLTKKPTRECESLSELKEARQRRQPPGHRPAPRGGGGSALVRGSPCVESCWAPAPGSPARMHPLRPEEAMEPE

[30] = target: panel of 468 diverse kinases (Homo sapiens, UniProt P07949, V804M); settings: RET(V804M); 1000 nM; read-out: Percent Control
Sequence of panel of 468 diverse kinases (Homo sapiens, UniProt P07949, V804M) (P07949 29-1114 V804M limits assumed): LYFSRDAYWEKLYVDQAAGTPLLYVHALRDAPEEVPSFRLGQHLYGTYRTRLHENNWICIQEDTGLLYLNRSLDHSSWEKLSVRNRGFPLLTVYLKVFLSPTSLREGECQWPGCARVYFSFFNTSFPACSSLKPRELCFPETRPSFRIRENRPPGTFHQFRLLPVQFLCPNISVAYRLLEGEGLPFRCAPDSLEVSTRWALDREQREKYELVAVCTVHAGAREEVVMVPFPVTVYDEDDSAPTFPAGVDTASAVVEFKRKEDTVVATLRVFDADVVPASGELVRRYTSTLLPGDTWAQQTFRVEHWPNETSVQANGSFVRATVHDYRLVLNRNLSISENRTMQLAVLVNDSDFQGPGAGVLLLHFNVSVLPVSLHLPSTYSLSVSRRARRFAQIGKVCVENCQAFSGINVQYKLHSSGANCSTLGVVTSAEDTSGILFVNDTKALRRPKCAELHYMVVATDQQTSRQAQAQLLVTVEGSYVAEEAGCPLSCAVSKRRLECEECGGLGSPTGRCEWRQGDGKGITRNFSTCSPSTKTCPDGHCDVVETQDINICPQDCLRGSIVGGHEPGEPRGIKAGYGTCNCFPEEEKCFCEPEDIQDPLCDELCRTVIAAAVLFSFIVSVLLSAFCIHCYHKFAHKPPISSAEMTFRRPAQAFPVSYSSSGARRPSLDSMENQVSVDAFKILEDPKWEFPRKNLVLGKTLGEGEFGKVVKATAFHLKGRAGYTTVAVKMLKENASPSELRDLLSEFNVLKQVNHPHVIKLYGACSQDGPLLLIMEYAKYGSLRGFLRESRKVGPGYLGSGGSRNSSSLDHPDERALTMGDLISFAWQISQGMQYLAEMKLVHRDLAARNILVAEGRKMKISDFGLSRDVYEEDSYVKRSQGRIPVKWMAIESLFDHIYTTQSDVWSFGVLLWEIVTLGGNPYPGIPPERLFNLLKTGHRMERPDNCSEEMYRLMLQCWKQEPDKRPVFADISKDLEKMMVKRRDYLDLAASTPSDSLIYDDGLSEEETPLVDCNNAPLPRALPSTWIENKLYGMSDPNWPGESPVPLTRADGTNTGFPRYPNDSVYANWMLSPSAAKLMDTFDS

[31] = target: panel of 468 diverse kinases (Homo sapiens, UniProt Q16513); settings: PKN2; 1000 nM; read-out: Percent Control

**Q.** How did the remaining activity at 1 µM [1] turn out when `COc1cc2nc(NC3CC3)nc(NC3CCN(C(C)C)CC3)c2cc1OC` [Formula IV] was run?
**A.** 50%

**Q.** And the remaining activity at 1 µM [2]?
**A.** 58%

**Q.** What about the remaining activity at 1 µM [3] of the same compound?
**A.** 54%

**Q.** And the remaining activity at 1 µM [4]?
**A.** 57%

**Q.** What about the remaining activity at 1 µM [5] of the same compound?
**A.** 100%

**Q.** What about the remaining activity at 1 µM [6] of the same compound?
**A.** 95%

**Q.** And the remaining activity at 1 µM [7]?
**A.** 71%

**Q.** What about the remaining activity at 1 µM [8] of the same compound?
**A.** 63%

**Q.** And the remaining activity at 1 µM [9]?
**A.** 86%

**Q.** And the remaining activity at 1 µM [10]?
**A.** 45%

**Q.** What about the remaining activity at 1 µM [11] of the same compound?
**A.** 54%

**Q.** And the remaining activity at 1 µM [12]?
**A.** 96%

**Q.** What about the remaining activity at 1 µM [13] of the same compound?
**A.** 92%

**Q.** What about the remaining activity at 1 µM [14] of the same compound?
**A.** 77%

**Q.** What about the remaining activity at 1 µM [15] of the same compound?
**A.** 91%

**Q.** And the remaining activity at 1 µM [16]?
**A.** 100%

**Q.** What about the remaining activity at 1 µM [17] of the same compound?
**A.** 93%

**Q.** What about the remaining activity at 1 µM [18] of the same compound?
**A.** 59%

**Q.** What about the remaining activity at 1 µM [19] of the same compound?
**A.** 49%

**Q.** What about the remaining activity at 1 µM [20] of the same compound?
**A.** 100%

**Q.** And the remaining activity at 1 µM [21]?
**A.** 78%

**Q.** What about the remaining activity at 1 µM [22] of the same compound?
**A.** 90%

**Q.** What about the remaining activity at 1 µM [23] of the same compound?
**A.** 71%

**Q.** And the remaining activity at 1 µM [24]?
**A.** 74%

**Q.** What about the remaining activity at 1 µM [25] of the same compound?
**A.** 69%

**Q.** And the remaining activity at 1 µM [26]?
**A.** 92%

**Q.** And the remaining activity at 1 µM [27]?
**A.** 80%

**Q.** What about the remaining activity at 1 µM [28] of the same compound?
**A.** 85%

**Q.** What about the remaining activity at 1 µM [29] of the same compound?
**A.** 100%

**Q.** And the remaining activity at 1 µM [30]?
**A.** 100%

**Q.** And the remaining activity at 1 µM [31]?
**A.** 98%
